From US9179674B2, “Macrocyclic picolinamide compounds with fungicidal activity” (DOW AGROSCIENCES LLC, priority 2013, dated 2015) come the findings set out here.

Like-named read-outs stand apart in the source and are kept apart here.

Common to all, as to format: in vivo
Experiment [1] deals with Mycosphaerella graminicola; Anamorph: Septoria tritici. Kind of experiment: Leaf Blotch of Wheat fungicidal activity (SEPTTR). The settings on record: Zymoseptoria tritici; for pest or weed control at 100 ppm: rate 100 ppm; for pest or weed control at 121.5 g/ha: rate 121.5 g/H. The essentials: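 Acetone solutions diluted with nine volumes of water containing 110 ppm Triton X-100, sprayed to run-off on first-leaf wheat seedlings (Yuma), inoculated with S. tritici before or after treatment. Plants held in dew chambers, then in a 20 °C greenhouse. Disease severity (0–100%) scored when untreated plants fully symptomatic; % control relative to untreated.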

Another experiment has as its system Puccinia triticina. Kind of experiment: Wheat Brown Rust fungicidal activity (PUCCRT). The settings on record: Puccinia triticina; for pest or weed control at 100 ppm: rate 100 ppm; for pest or weed control at 121.5 g/ha: rate 121.5 g/H. The procedure, abridged:
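Yuma wheat seedlings at first-leaf stage sprayed to run-off (acetone solution in water with 110 ppm Triton X-100) or track-sprayed as EC with 0.1% Trycol 5941; inoculated with P. triticina spores before or after treatment. Overnight dark dew at 22° C., then greenhouse 24° C.; disease severity 0–100% gives percent control vs untreated.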

Another experiment deals with Phakopsora pachyrhizi. Briefly: Asian Soybean Rust fungicidal activity (PHAKPA). As to conditions: 25 ppm; for Disease Control PHAKPA 1DP: 1 Day Protectant; for Disease Control PHAKPA 3DC: 3 Day Curative. The procedure: Evaluation of Fungicidal Activity: Asian Soybean Rust (Phakopsora pachyrhizi; Bayer Code PHAKPA)
Technical grades of materials were dissolved in acetone, which were then mixed with nine volumes of water containing 0.011% Tween 20. The fungicide solutions were applied onto soybean seedlings using an automated booth sprayer to run-off. All sprayed plants were allowed to air dry prior to further handling.
Soybean plants (variety Williams 82) were grown in soil-less Metro mix, with one plant per pot. Two weeks old seedlings were used for testing. Plants were inoculated either 3 days prior to or 1 day after fungicide treatments. Plants were incubated for 24 h in a dark dew room at 22° C. and 100% RH then transferred to a growth room at 23° C. for disease to develop. Disease severity was assessed on the sprayed leaves.

Setting [2] is: 24 h, 1 Day Protectant, read-out: Disease control SEPTTR 1DP.
[3] abbreviates: 72 h, 3 Day Curative, read-out: Disease control SEPTTR 3DC.
Where [4] appears, read: 24 h, 1 Day Protectant, read-out: Disease control PUCCRT 1DP.
[5] abbreviates: 72 h, 3 Day Curative, read-out: Disease control PUCCRT 3DC.

Turning to `COc1ccnc(C(=O)N[C@H]2COC[C@H](CCC(C)C)[C@@H](OCC(C)C)[C@H](C)OC2=O)c1OCOC(C)=O` [Compound F106], the pest or weed control at 100 ppm (in experiment [1] (setting [2]); in experiment [1] (setting [3]); in the experiment on Puccinia triticina (setting [4]); in the experiment on Puccinia triticina (setting [5])) was 80 to 100% each time. In addition, the pest or weed control at 121.5 g/ha (in experiment [1] (setting [2]); in experiment [1] (setting [3]); in the experiment with Puccinia triticina (setting [4]); with Puccinia triticina (setting [5])) was 80 to 100% throughout. For the same compound, the “Disease Control PHAKPA 1DP” value in the experiment with Phakopsora pachyrhizi is “A (80-100)”. Besides, the “Disease Control PHAKPA 3DC” value in the experiment on Phakopsora pachyrhizi is “A (80-100)”.
For the compound `COc1ccnc(C(=O)N[C@H]2COC[C@H](Cc3cc(F)c(F)c(F)c3)[C@@H](OCC(C)C)[C@H](C)OC2=O)c1OCOC(C)=O` [Compound F109], the pest or weed control at 100 ppm (in experiment [1] (setting [2]); in experiment [1] (setting [3]); in the experiment on Puccinia triticina (setting [4]); with Puccinia triticina (setting [5])) was 80 to 100% throughout. The pest or weed control at 121.5 g/ha (in experiment [1] (setting [2]); in experiment [1] (setting [3]); in the experiment with Puccinia triticina (setting [4]); in the experiment with Puccinia triticina (setting [5])) was 80 to 100% each time. Moreover, the “Disease Control PHAKPA 1DP” value in the experiment with Phakopsora pachyrhizi is listed as “A (80-100)”. In the experiment with Phakopsora pachyrhizi, the “Disease Control PHAKPA 3DC” value is recorded as “B (More than 0-Less than 80)”.
